According to US11434220B2, “Use of physiological cooling active ingredients, and compositions comprising such active ingredients” (BASF SE, priority 2017, dated 2022):

Tests used:
human TRPM8 receptor = biological target: T1, human TRPM8 receptor (Homo sapiens, UniProt Q7Z2W7); assay: Assay for TRPM8 modulators: Ca2+ fluorescence (Fluo-4) in HEK293-TRPM8 test cells; format: cell-based; settings: HEK293 cells stably transfected with human TRPM8, agonism, triplicates, 0.1-200 μM; read-out: Activity In vitro assay (EC50)
T1 construct: expressed in transfected cells
Description: The test cell system produced, with human TRPM8 DNA, was a stably transfected HEK293 cell line. Preference is given here to HEK293 which, via the plasmid introduced, offers the option of induction of TRPM8 expression by means of tetracycline.
The agonism or antagonism of the receptor can be quantified by means of a Ca^2+-sensitive dye (e.g. FURA, Fluo-4 etc.). Agonists on their own result in an increase in the Ca^2+ signal; antagonists in the presence of menthol, for example, result in a reduction in the Ca^2+ signal (in each case detected by means of the Fluo-4 dye which is caused to have different fluorescence properties by Ca^2+).
First of all, in a manner known per se, a fresh culture of transformed HEK cells is produced in cell culture bottles. The HEK293-TRPM8 test cells are detached from the cell culture bottles by means of trypsin and 40 000 cells/well are sown with 100 μl of medium in 96-hole plates (Greiner #655948 poly-D-lysine-coated). For induction of the TRPM8 receptor, tetracycline is added to the growth medium (DMEM/HG, 10% FCS tetracycline-free, 4 mM L-glutamine, 15 μg/mL blasticidin, 100 μg/mL hygromycin B, 1 μg/mL tetracycline). The next day, the cells are laden with Fluo-4AM dye and the test is conducted.
The test substances are used in the assay in triplicates in concentrations of 0.1-200 μM. Normally, the compounds are kept in DMSO solutions and diluted down for the assay to a maximum DMSO concentration of 2%.

trained panelists = assay: Sensory assessment: cooling intensity of inventive amides in 5% sugar solution compared to FEMA 4809; format: in vivo, human; settings: scale 1 (very weak) to 9 (very strong), n=10 to 11
Experimental: […] What were assessed here were initial cooling intensity, overall cooling intensity and long-lasting action on a scale from 1 (very weak) to 9 (very strong).

T1 sequence (Q7Z2W7 whole entry): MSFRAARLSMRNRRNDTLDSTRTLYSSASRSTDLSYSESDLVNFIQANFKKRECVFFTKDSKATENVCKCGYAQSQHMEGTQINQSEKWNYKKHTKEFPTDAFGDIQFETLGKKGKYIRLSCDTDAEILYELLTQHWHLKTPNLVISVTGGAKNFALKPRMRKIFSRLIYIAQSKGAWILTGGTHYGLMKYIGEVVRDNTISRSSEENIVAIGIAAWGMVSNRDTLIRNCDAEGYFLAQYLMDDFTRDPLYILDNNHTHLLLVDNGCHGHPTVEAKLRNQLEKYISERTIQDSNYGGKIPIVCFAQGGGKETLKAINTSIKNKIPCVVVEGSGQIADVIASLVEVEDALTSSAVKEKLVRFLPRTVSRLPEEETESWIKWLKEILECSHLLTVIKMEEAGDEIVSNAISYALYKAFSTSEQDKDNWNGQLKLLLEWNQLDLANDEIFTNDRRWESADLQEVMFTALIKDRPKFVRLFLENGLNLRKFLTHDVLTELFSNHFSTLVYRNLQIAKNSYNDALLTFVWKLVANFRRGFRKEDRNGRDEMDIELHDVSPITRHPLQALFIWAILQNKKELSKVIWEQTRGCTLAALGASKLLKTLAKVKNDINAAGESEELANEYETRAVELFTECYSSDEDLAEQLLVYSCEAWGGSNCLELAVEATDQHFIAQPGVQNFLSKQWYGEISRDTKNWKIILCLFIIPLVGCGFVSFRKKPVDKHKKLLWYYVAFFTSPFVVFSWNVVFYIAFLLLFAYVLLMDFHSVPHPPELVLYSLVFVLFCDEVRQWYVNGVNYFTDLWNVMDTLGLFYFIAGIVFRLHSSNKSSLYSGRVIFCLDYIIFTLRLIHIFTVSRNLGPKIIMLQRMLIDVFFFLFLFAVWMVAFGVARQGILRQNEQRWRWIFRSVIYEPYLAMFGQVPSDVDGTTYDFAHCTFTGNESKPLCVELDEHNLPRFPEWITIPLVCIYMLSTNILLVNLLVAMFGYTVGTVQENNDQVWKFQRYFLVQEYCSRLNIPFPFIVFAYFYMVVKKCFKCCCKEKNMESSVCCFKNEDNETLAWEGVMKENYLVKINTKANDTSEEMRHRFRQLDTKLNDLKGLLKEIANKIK

Row | SMILES | EC50 (human TRPM8 receptor) | Initial cooling effect (trained panelists; 20 ppm in 5% sugar solution) | Long-lasting action (trained panelists; 20 ppm in 5% sugar solution) | Overall cooling intensity (trained panelists; 20 ppm in 5% sugar solution) | Initial cooling effect (trained panelists; 2 ppm in 5% sugar solution) | Long-lasting action (trained panelists; 2 ppm in 5% sugar solution) | Overall cooling intensity (trained panelists; 2 ppm in 5% sugar solution)
1 | COc1ccc(/C=C/C(=O)N(CC2CCCO2)c2cc[nH]n2)cc1 (centres unmarked) [(E)-3-(4-methoxyphenyl)-N-(1H-pyrazol-3-yl)-N-(tetrahydrofuran-2-ylmethyl)prop-2-enamide] | 25 µM | – | – | – | – | – | –
2 | O=C(/C=C/c1ccc2c(c1)OCO2)N(c1ccccc1)C1CCOC1 (centres unmarked) [(E)-3-(1,3-benzodioxol-5-yl)-N-phenyl-N-tetrahydrofuran-3-yl-prop-2-enamide] | 25 µM | 5.8 | 7.9 | 7.8 | 4.1 | 6.9 | 6.1
3 | CSCCN(C(=O)COc1ccc(C)cc1)c1ccccc1 [2-(4-methylphenoxy)-N-(2-methylsulfanylethyl)-N-phenyl-acetamide] | 25 µM | 2.2 | 2.8 | 2.8 | – | – | –
4 | O=C(/C=C/c1ccccc1)N(c1ccccn1)C1CCSC1 (centres unmarked) [(E)-3-phenyl-N-(2-pyridyl)-N-tetrahydrothiophen-3-yl-prop-2-enamide] | 30 µM | 5.3 | 7.8 | 7.8 | – | – | –
5 | Cc1ccc(/C=C/C(=O)N(c2ccccn2)C2CCSC2)cc1 (centres unmarked) [(E)-3-(p-tolyl)-N-(2-pyridyl)-N-tetrahydrothiophen-3-yl-prop-2-enamide] | 25 µM | 5.3 | 7.4 | 7.0 | – | – | –
6 | CCN(CCCSC)C(=O)/C=C/c1ccc2c(c1)OCO2 [(E)-3-(1,3-benzodioxol-5-yl)-N-ethyl-N-(3-methylsulfanylpropyl)prop-2-enamide] | 30 µM | – | – | – | – | – | –

Further lines, with some results ahead:

Row | EC50 (human TRPM8 receptor) | SMILES | Initial cooling effect (trained panelists; 20 ppm in 5% sugar solution) | Long-lasting action (trained panelists; 20 ppm in 5% sugar solution) | Overall cooling intensity (trained panelists; 20 ppm in 5% sugar solution) | Initial cooling effect (trained panelists; 2 ppm in 5% sugar solution) | Long-lasting action (trained panelists; 2 ppm in 5% sugar solution) | Overall cooling intensity (trained panelists; 2 ppm in 5% sugar solution)
7 | 25 µM | COc1ccc(/C=C/C(=O)N(c2ccccn2)C2CCSC2)cc1 (centres unmarked) [(E)-3-(4-methoxyphenyl)-N-(2-pyridyl)-N-tetrahydrothiophen-3-yl-prop-2-enamide] | 4.1 | 5.9 | 5.6 | – | – | –
8 | 15 µM | CCN(CCSC)C(=O)/C=C/c1ccc2c(c1)OCO2 [(E)-3-(1,3-benzodioxol-5-yl)-N-ethyl-N-(2-methylsulfanylethyl)prop-2-enamide] | 3.8 | 4.7 | 5 | – | – | –
9 | 6 µM | O=C(/C=C/c1ccc2c(c1)OCO2)N(c1ccccn1)C1CCSC1 (centres unmarked) [(E)-3-(1,3-benzodioxol-5-yl)-N-(2-pyridyl)-N-tetrahydrothiophen-3-yl-prop-2-enamide] | 6.6 | 7.9 | 8.3 | – | – | –
10 | 5 µM | O=C(/C=C/c1ccc2c(c1)OCO2)N(CC1CCCO1)c1ccccc1 (centres unmarked) [(E)-3-(1,3-benzodioxol-5-yl)-N-phenyl-N-(tetrahydrofuran-2-ylmethyl)prop-2-enamide] | 3.1 | 5.3 | 5.0 | – | – | –
11 | 10 µM | Cc1ccc(OCC(=O)N(CC2CCCO2)c2cc[nH]n2)cc1 (centres unmarked) [2-(4-methylphenoxy)-N-(1H-pyrazol-3-yl)-N-(tetrahydrofuran-2-ylmethyl)acetamide] | – | – | – | – | – | –
12 | 12.5 µM | COc1ccc(/C=C/C(=O)N(c2ccccc2)C2CCOC2)cc1 (centres unmarked) [(E)-3-(4-methoxyphenyl)-N-phenyl-N-tetrahydrofuran-3-yl-prop-2-enamide] | – | – | – | – | – | –
13 | 15 µM | O=C(/C=C/c1ccc2c(c1)OCO2)N(CC1CCCO1)c1cc[nH]n1 (centres unmarked) [(E)-3-(1,3-benzodioxol-5-yl)-N-(1H-pyrazol-3-yl)-N-(tetrahydrofuran-2-ylmethyl)prop-2-enamide] | – | – | – | – | – | –
14 | 5 µM | O=C(/C=C/c1ccc2c(c1)OCO2)N(CC1CCCS1)c1cc[nH]n1 (centres unmarked) [(E)-3-(1,3-benzodioxol-5-yl)-N-(1H-pyrazol-3-yl)-N-(tetrahydrothiophen-2-ylmethyl)prop-2-enamide] | – | – | – | – | – | –
